Measured values published in patent publication US11214594B2, “Antimicrobial peptide having synergistic antibacterial effect with antibiotics on multidrug resistant bacteria, and use thereof” (priority 2016, dated 2022).
Converted amounts (≈) assume the structure as drawn. Where a SMILES comes first, the peptide text is derived from it.

Assays:
E. coli [1] = test: microbe, parasite or virus in culture; assay type: cell-based, Escherichia coli; settings: for Minimal inhibitory concentration MIC: 16 h
Procedure, shortened: (§1)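 Broth microdilution in MH medium: bacterial strains diluted to 2×10^6 CFU were mixed with equal volumes of peptide serially diluted twofold in MH medium.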

MDREC 1229 = test: microbe, parasite or virus in culture; assay type: cell-based, Escherichia coli
Procedure, shortened: as §1

MDRPA 2002 = assay type: cell-based, Pseudomonas aeruginosa
Procedure, shortened: as §1

A. baumannii = test: microbe, parasite or virus in culture; assay type: cell-based, Acinetobacter baumannii
Procedure, shortened: as §1

MDRAB 12035 = test: microbe, parasite or virus in culture; assay type: cell-based, Acinetobacter baumannii
Procedure, shortened: as §1

S. typhimurium = test: microbe, parasite or virus in culture; assay type: cell-based, Salmonella typhimurium
Procedure, shortened: as §1

MDRST 8007 = test: Minimal inhibitory concentration (MIC), single agent; assay type: cell-based, Salmonella typhimurium; settings: agent alone
Experimental: (§2) For the antibacterial activity, a minimal inhibitory concentration (MIC) of a peptide in which fungus bodies were not split in an MH medium with sufficient nutrients was measured.
(§3) Specifically, the strains described in the following [Table 2] were purchased and diluted with an MH medium such that the number of bacteria was 2×10^6 colony-forming units (CFUs), 100 μl of each of the diluted strains was aliquoted into a 96-well microtiter plate, and then 100 μl of a peptide solution diluted with the MH medium (solution diluted stepwise at 2: 1) was added to each well.

B. subtilis = test: microbe, parasite or virus in culture; assay type: cell-based, Bacillus subtilis
Procedure, shortened: as §1

S. aureus = test: microbe, parasite or virus in culture; assay type: cell-based, Staphylococcus aureus
Procedure, shortened: as §1

MRSA 3114 = assay type: cell-based, Staphylococcus aureus; settings: 3114
Experimental: as §2, §3

MRSA 3126 = assay type: cell-based, Staphylococcus aureus; settings: 3126
Experimental: as §2, §3

E. coli [2] = test: MIC of antibiotic during combined treatment with antimicrobial peptide; assay type: cell-based, Escherichia coli; settings: for Synergistic effect of antibacterial activity with existing antibiotics compared with PapMA-1: E. coli and MDREC1229; for Antibiotic MIC, Erythromycin / Antibiotic MIC, Linezolid / Antibiotic MIC, Vancomycin: E. coli
Procedure, shortened: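 Read-out is the MIC of each combined solution, obtained from MH-medium dilutions of antibiotic added well by well, with a reversed-condition run as well.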

[3] = erythromycin combined with peptide at 1 μg/ml
[4] = erythromycin combined with peptide at 2 μg/ml
[5] = erythromycin combined with peptide at 4 μg/ml
[6] = erythromycin combined with peptide at 6 μg/ml
[7] = erythromycin combined with peptide at 8 μg/ml
[8] = erythromycin combined with peptide at 16 μg/ml
[9] = erythromycin combined with peptide at 32 μg/ml
[10] = erythromycin combined with peptide at 64 μg/ml
[11] = linezolid combined with peptide at 1 μg/ml
[12] = linezolid combined with peptide at 2 μg/ml
[13] = linezolid combined with peptide at 4 μg/ml
[14] = linezolid combined with peptide at 6 μg/ml
[15] = linezolid combined with peptide at 8 μg/ml
[16] = linezolid combined with peptide at 16 μg/ml
[17] = linezolid combined with peptide at 32 μg/ml
[18] = linezolid combined with peptide at 64 μg/ml
[19] = vancomycin combined with peptide at 1 μg/ml
[20] = vancomycin combined with peptide at 2 μg/ml
[21] = vancomycin combined with peptide at 4 μg/ml
[22] = vancomycin combined with peptide at 6 μg/ml
[23] = vancomycin combined with peptide at 8 μg/ml
[24] = vancomycin combined with peptide at 16 μg/ml
[25] = vancomycin combined with peptide at 32 μg/ml
[26] = vancomycin combined with peptide at 64 μg/ml

Compound	Minimal inhibitory concentration MIC (E. coli [1])	Minimal inhibitory concentration MIC (MDREC 1229)	Minimal inhibitory concentration MIC (MDRPA 2002)	Minimal inhibitory concentration MIC (A. baumannii)	Peptide MIC, peptide alone (A. baumannii)	Minimal inhibitory concentration MIC (MDRAB 12035)	Peptide MIC, peptide alone (MDRAB 12035)	Minimal inhibitory concentration MIC (S. typhimurium)	Minimal inhibitory concentration MIC (MDRST 8007)	Minimal inhibitory concentration MIC (B. subtilis)	Minimal inhibitory concentration MIC (S. aureus)	Minimal inhibitory concentration MIC (MRSA 3114)	Minimal inhibitory concentration MIC (MRSA 3126)	Antibiotic MIC, Erythromycin (E. coli [2]; [3])	Antibiotic MIC, Erythromycin (E. coli [2]; [4])	Antibiotic MIC, Erythromycin (E. coli [2]; [5])	Antibiotic MIC, Erythromycin (E. coli [2]; [6])	Antibiotic MIC, Erythromycin (E. coli [2]; [7])	Antibiotic MIC, Erythromycin (E. coli [2]; [8])	Antibiotic MIC, Erythromycin (E. coli [2]; [9])	other results
CC[C@H](C)[C@H](NC(=O)[C@H](CCCCN)NC(=O)[C@H](Cc1c[nH]c2ccccc12)NC(=O)[C@@H](N)CCCNC(=N)N)C(=O)N[C@@H](Cc1ccccc1)C(=O)N[C@@H](CCCCN)C(=O)N[C@@H](CCCCN)C(=O)N[C@H](C(=O)N1CCC[C@H]1C(=O)N[C@@H](CCCCN)C(=O)N[C@@H](CC(C)C)C(=O)N[C@@H](CC(C)C)C(=O)N[C@@H](Cc1c[nH]cn1)C(=O)N[C@@H](CO)C(=O)N[C@@H](CC(C)C)C(=O)N[C@@H](CCCCN)C(=O)N[C@@H](CCCCN)C(=O)N[C@@H](Cc1c[nH]c2ccccc12)C(N)=O)[C@@H](C)CC [PapMA-10, RWK IFK KIP KLL HSL KKW-NH2] (H-RWKIFKKIPKLLHSLKKW-NH2; N-terminus assumed)	32 µg/mL (≈ 13.6 µM)	64 µg/mL (≈ 27.2 µM)	8 µg/mL (≈ 3.41 µM)	16 µg/mL (≈ 6.81 µM)	16 µg/mL	32 µg/mL (≈ 13.6 µM)	32 µg/mL	16 µg/mL (≈ 6.81 µM)	32 µg/mL (≈ 13.6 µM)	>128 µg/mL	>128 µg/mL	>128 µg/mL	>128 µg/mL	128 µg/mL	64 µg/mL	32 µg/mL	8 µg/mL	0.5 µg/mL	0.25 µg/mL	0 µg/mL	Antibacterial activity relative to PapMA-1 (E. coli [1]; E. coli): at least twice as high; Synergistic effect of antibacterial activity with existing antibiotics compared with PapMA-1 (E. coli [2]): level similar to that of the PapMA-1 peptide; Antibiotic MIC, Erythromycin (E. coli [2]; [10]): 0 µg/mL; Antibiotic MIC, Linezolid (E. coli [2]; [11]): >128 µg/mL; Antibiotic MIC, Linezolid (E. coli [2]; [12]): >128 µg/mL; Antibiotic MIC, Linezolid (E. coli [2]; [13]): 128 µg/mL; Antibiotic MIC, Linezolid (E. coli [2]; [14]): 64 µg/mL; Antibiotic MIC, Linezolid (E. coli [2]; [15]): 8 µg/mL; Antibiotic MIC, Linezolid (E. coli [2]; [16]): 4 µg/mL; Antibiotic MIC, Linezolid (E. coli [2]; [17]): 0 µg/mL; Antibiotic MIC, Linezolid (E. coli [2]; [18]): 0 µg/mL; Antibiotic MIC, Vancomycin (E. coli [2]; [19]): >128 µg/mL; Antibiotic MIC, Vancomycin (E. coli [2]; [20]): >128 µg/mL; Antibiotic MIC, Vancomycin (E. coli [2]; [21]): 64 µg/mL; Antibiotic MIC, Vancomycin (E. coli [2]; [22]): 32 µg/mL; Antibiotic MIC, Vancomycin (E. coli [2]; [23]): 16 µg/mL; Antibiotic MIC, Vancomycin (E. coli [2]; [24]): 2 µg/mL; Antibiotic MIC, Vancomycin (E. coli [2]; [25]): 0 µg/mL; Antibiotic MIC, Vancomycin (E. coli [2]; [26]): 0 µg/mL
CC[C@H](C)[C@H](NC(=O)[C@H](CCCCN)NC(=O)[C@H](Cc1c[nH]c2ccccc12)NC(=O)[C@@H](N)CCCNC(=N)N)C(=O)N[C@@H](Cc1ccccc1)C(=O)N[C@@H](CCCCN)C(=O)N[C@@H](CCCCN)C(=O)N[C@H](C(=O)N1CCC[C@H]1C(=O)N[C@@H](CCCCN)C(=O)N[C@@H](Cc1ccccc1)C(=O)N[C@@H](CC(C)C)C(=O)N[C@@H](Cc1c[nH]cn1)C(=O)N[C@@H](CO)C(=O)N[C@@H](C)C(=O)N[C@@H](CCCCN)C(=O)N[C@@H](CCCCN)C(=O)N[C@@H](Cc1ccccc1)C(N)=O)[C@@H](C)CC [PapMA-1, RWK IFK KIP KFL HSA KKF-NH2] (H-RWKIFKKIPKFLHSAKKF-NH2; N-terminus assumed)	64 µg/mL (≈ 27.8 µM)	64 µg/mL (≈ 27.8 µM)	16 µg/mL (≈ 6.95 µM)	64 µg/mL (≈ 27.8 µM)	64 µg/mL	64 µg/mL (≈ 27.8 µM)	64 µg/mL	64 µg/mL (≈ 27.8 µM)	64 µg/mL (≈ 27.8 µM)	>128 µg/mL	>128 µg/mL	>128 µg/mL	>128 µg/mL	64 µg/mL	32 µg/mL	16 µg/mL	4 µg/mL	2 µg/mL	0.5 µg/mL	0.125 µg/mL	Peptide MIC, peptide alone (MDREC 1229): 64 µg/mL; Antibiotic MIC, Erythromycin (E. coli [2]; [10]): 0 µg/mL; Antibiotic MIC, Linezolid (E. coli [2]; [11]): 128 µg/mL; Antibiotic MIC, Linezolid (E. coli [2]; [12]): 128 µg/mL; Antibiotic MIC, Linezolid (E. coli [2]; [13]): 64 µg/mL; Antibiotic MIC, Linezolid (E. coli [2]; [14]): 16 µg/mL; Antibiotic MIC, Linezolid (E. coli [2]; [15]): 16 µg/mL; Antibiotic MIC, Linezolid (E. coli [2]; [16]): 16 µg/mL; Antibiotic MIC, Linezolid (E. coli [2]; [17]): 8 µg/mL; Antibiotic MIC, Linezolid (E. coli [2]; [18]): 0 µg/mL; Antibiotic MIC, Vancomycin (E. coli [2]; [19]): >128 µg/mL; Antibiotic MIC, Vancomycin (E. coli [2]; [20]): >128 µg/mL; Antibiotic MIC, Vancomycin (E. coli [2]; [21]): >128 µg/mL; Antibiotic MIC, Vancomycin (E. coli [2]; [22]): 32 µg/mL; Antibiotic MIC, Vancomycin (E. coli [2]; [23]): 32 µg/mL; Antibiotic MIC, Vancomycin (E. coli [2]; [24]): 16 µg/mL; Antibiotic MIC, Vancomycin (E. coli [2]; [25]): 4 µg/mL; Antibiotic MIC, Vancomycin (E. coli [2]; [26]): 0 µg/mL
CC[C@H](C)[C@H](NC(=O)[C@H](CCCCN)NC(=O)[C@H](Cc1c[nH]c2ccccc12)NC(=O)[C@@H](N)CCCNC(=N)N)C(=O)N[C@@H](Cc1ccccc1)C(=O)N[C@@H](CCCCN)C(=O)N[C@@H](CCCCN)C(=O)N[C@H](C(=O)N1CCC[C@H]1C(=O)N[C@@H](CCCCN)C(=O)N[C@@H](Cc1ccccc1)C(=O)N[C@@H](CC(C)C)C(=O)N[C@@H](Cc1c[nH]cn1)C(=O)N[C@@H](CO)C(=O)N[C@@H](CC(C)C)C(=O)N[C@@H](CCCCN)C(=O)N[C@@H](CCCCN)C(=O)N[C@@H](Cc1ccccc1)C(N)=O)[C@@H](C)CC [PapMA-6, RWK IFK KIP KFL HSL KKF-NH2] (H-RWKIFKKIPKFLHSLKKF-NH2; N-terminus assumed)	64 µg/mL (≈ 27.3 µM)	64 µg/mL (≈ 27.3 µM)	32 µg/mL (≈ 13.7 µM)	32 µg/mL (≈ 13.7 µM)	32 µg/mL	64 µg/mL (≈ 27.3 µM)	64 µg/mL	16 µg/mL (≈ 6.83 µM)	32 µg/mL (≈ 13.7 µM)	>128 µg/mL	>128 µg/mL	>128 µg/mL	>128 µg/mL	64 µg/mL	64 µg/mL	8 µg/mL	4 µg/mL	0.5 µg/mL	0.25 µg/mL	0.125 µg/mL	Synergistic effect of antibacterial activity with existing antibiotics compared with PapMA-1 (E. coli [2]): higher level than the PapMA-1 peptide; Antibiotic MIC, Erythromycin (E. coli [2]; [10]): 0 µg/mL; Antibiotic MIC, Linezolid (E. coli [2]; [11]): >128 µg/mL; Antibiotic MIC, Linezolid (E. coli [2]; [12]): >128 µg/mL; Antibiotic MIC, Linezolid (E. coli [2]; [13]): 32 µg/mL; Antibiotic MIC, Linezolid (E. coli [2]; [14]): 8 µg/mL; Antibiotic MIC, Linezolid (E. coli [2]; [15]): 8 µg/mL; Antibiotic MIC, Linezolid (E. coli [2]; [16]): 2 µg/mL; Antibiotic MIC, Linezolid (E. coli [2]; [17]): 2 µg/mL; Antibiotic MIC, Linezolid (E. coli [2]; [18]): 0 µg/mL; Antibiotic MIC, Vancomycin (E. coli [2]; [19]): >128 µg/mL; Antibiotic MIC, Vancomycin (E. coli [2]; [20]): >128 µg/mL; Antibiotic MIC, Vancomycin (E. coli [2]; [21]): 32 µg/mL; Antibiotic MIC, Vancomycin (E. coli [2]; [22]): 16 µg/mL; Antibiotic MIC, Vancomycin (E. coli [2]; [23]): 8 µg/mL; Antibiotic MIC, Vancomycin (E. coli [2]; [24]): 2 µg/mL; Antibiotic MIC, Vancomycin (E. coli [2]; [25]): 1 µg/mL; Antibiotic MIC, Vancomycin (E. coli [2]; [26]): 0 µg/mL
